Measurements from patent EP0559700B1, “NOVEL PILOCARPINE DERIVATIVES AND PROCESS FOR THEIR PREPARATION” (Santen Oy, priority 1990, dated 1992).
Where two headings read alike, the source gives them in different places.

What was measured:
[1] = Stability of the compounds: buffer hydrolysis (half-times, shelf-life); type: physicochemical
Protocol: The stability of the test compounds were tested with buffer hydrolyses. The ionic strength (µ) of the buffers was 0.5, the pH-values used 4.2, 6.0, 7.4 and 9.0 and the temperatures used 37°C, 50 °C, 60 °C and 70 °C.
The half-times T½ calculated on basis of the degradation constant k obtained for each studied compound (T½=0.693/k; k = 2.303 x kk, wherein kk is the angular coefficient of the plot which illustrates the logarithm of the remaining ester as a function of time) in a buffer solution of said pH, are indicated in the Table I below, which values refer to half-times at 37°C.
The storage stability of the derivatives under different storage conditions may be estimated by determining the degradation constants at different temperatures and calculating the degradation constant k at the desired temperature from the equation of the plot corresponding to the Arrhenius equation (1), wherein log k is given as a function of [1/T]. Log k = Log A -(Ea)/(2.303R)x(1)/(T) [formula]
From the degradation constant (k) obtained at the desired temperature the shelf-life-time t10% (t10% = 0.104/k) which indicates the time during which 10% of the drug has degraded may be calculated. By way of example it may be mentioned that the t10%-time of O,O'-dipropionyl (1,4-xylylene) bispilocarpate at 4 °C is almost 500 days.

[2] = Enzyme hydrolysis in plasma/buffer pH 7.4 mixture (80%-20%); type: in vitro ADME; conditions: for half-life: 80% plasma/buffer
Protocol: The half-times of enzyme hydrolysis of the novel bispilocarpates according to the invention and of known pilocarpic acid diesters were determined in a plasma/buffer pH 7.4-mixture (80%-20%) at 37°C. The degradation constants (k) for the compounds tested and determined from the plot showing the logarithm of remaining diester as a function of time and the half-lives T½ are shown in the Table II below. From the results it may be seen that in […] the stable test compound degrades under the influence of an enzyme (esterase) to a O,O'-dihydrogen bispilocarpate intermediate, which spontaneously degrades at pH 7.40 to pilocarpine. Consequently the effect of the bispilocarpate intermediate on the rate of formation of pilocarpine is very significant. The formation of pilocarpine was almost complete irrespective of the epimerization possibility of the intermediate. The amount of isopilocarpine formed varied from 0 to 10%, as also the pilocarpine formed epimerized, if the duration of hydrolysis was very long.

[3] = Corneal permeability in a diffusion chamber; type: in vitro ADME, rabbit
Excerpt: The corneal permeability of pilocarpine hydrochloride and its most promising prodrug derivatives as evaluated from the tests described above were studied in a diffusion chamber, wherein the migration of the compound from the delivering phase (epithelium side) thorugh the cornea to the acceptor side (endothelium side) of the diffusion chamber. In the study, rabbit eye cornea was used. From the samples taken from the acceptor side of the diffusion chamber, both the concentration of the prodrug and the liberated drug were determined in the acceptor phase with HPLC. Thus the rate of degradation of the prodrug in the cornea was determined. The permeability coefficients (Papp, cm/s) calculated from the permeability rate (μmol/min), their […] deviations (RSD) and the number of tests, are given in the Table II below.

[4] = Lipophilicity: partition coefficient (octanol-buffer) and capacity factor by RP-HPLC; type: physicochemical; conditions: for chromatographic logP / Capacity factor (22°C) k': rp-hplc; for chromatographic logP: reverse phase HPLC, 22°C, read-out: Capacity factor (22°C) k' (converted)
Excerpt: The lipophilicity of the compounds were studied by determining the partition coefficients (P) of the compounds at a pH of 7.40. The measurements were made either in an octanol-buffer mixture by determining the concentration of the compound to be studied in the buffer phase by HPLC. The partition coefficients of the very lipophilic compounds were, however, determined by reverse phase (RP) liquid chromatography (HPLC) from the retention time (Beckmann 116 pump and 166 UV detector; Marathon autom. sample feeder). […] From the results it can be seen that the compounds of the invention are considerably more lipophilic than the pilocarpine.

[5] = pKa-value determination by titration in a water-ethanol mixture (50%-50%); type: physicochemical; conditions: water-ethanol 50:50; titration in water-ethanol mixture (50%-50%)
[6] = buffer pH 9.00, ionic strength 0.5, 37°C, read-out: Half-times in buffers at 37°C, T½, pH 9.00 (converted)
[7] = pH 4.2, buffer pH 4.20, ionic strength 0.5, 37°C, read-out: Half-times in buffers at 37°C, T½, pH 4.20 (converted)
[8] = pH 7.4, buffer pH 7.40, ionic strength 0.5, 37°C, read-out: Half-times in buffers at 37°C, T½, pH 7.40 (converted)
[9] = plasma/buffer pH 7.4 (80%-20%), 37°C, read-out: half-times (T½) in plasma (80%), 37°C
[10] = plasma/buffer pH 7.4 (80%-20%), 37°C
[11] = rabbit eye cornea, diffusion chamber, epithelium side to endothelium side, read-out: Permeability coefficient Papp
[12] = buffer pH 6.00, ionic strength 0.5, 37°C, read-out: Half-times in buffers at 37°C, T½, pH 6.00 (converted)
[13] = determined from the equation log k'= 0.182 Log P - 0.4086 (RP-HPLC retention)

Row | SMILES | half-life [1, 6] [days] | half-life [1, 7] [days] | half-life [1, 8] [days] | half-life [2, 9] [days] | Degradation coefficient (k) in plasma (80%), 37°C [2, 10] [min⁻¹] | Papp [3, 11] [×10⁻⁶ cm/s] | half-life [1, 12] [days] | chromatographic logP [4] | pKa [5] | Partition coefficient log P [4, 13] | half-life ([2]; pH 7.4) [days] | Degradation coefficient (k) in plasma (80%), 37°C ([2]; pH 7.4) [min⁻¹] | also measured
1 | CC[C@H](C(=O)OCc1ccc(COC(=O)[C@@H](CC)[C@H](COC(=O)C2CC2)Cc2cncn2C)cc1)[C@H](COC(=O)C1CC1)Cc1cncn1C [Example 13, O,O'-Dicyclopronylcarbonyl (1,4-xylylene) bispilocarpate] | 14.1 | 2640 | 148 | 0.00972 | 0.04998 | 15.8 | 352 | 0.392 | 6 |  |  |  | Partition coefficient log P ([4]; determined with an octanol-buffer-mixture, pH 7.40, 22 °C): 4.2015^1
2 | CC[C@H](C(=O)OCc1ccccc1)[C@H](COC(=O)c1cccc(Cl)c1)Cc1cncn1C [3-chloro-benzoyl, benzyl, reference compound] |  |  |  | 0.0153 | 0.03132 | 7.2 |  |  |  |  |  |  | 
3 | CC[C@H](C(=O)OCc1ccc(COC(=O)[C@@H](CC)[C@H](COC(=O)c2ccccc2)Cc2cncn2C)cc1)[C@H](COC(=O)c1ccccc1)Cc1cncn1C [Example 14, O,O'-Dibenzoyl (1,4-xylylene) bispilocarpate] | 0.333 |  |  | 0.0653 | 0.00737 |  |  | 0.773 | 5.8 | 6.4929^2 |  |  | 
4 | CCCCC(=O)OC[C@H](Cc1cncn1C)[C@H](CC)C(=O)OCc1ccc(COC(=O)[C@@H](CC)[C@H](COC(=O)CCCC)Cc2cncn2C)cc1 [Example 12, O,O'-Divaleryl (1,4-xylylene) bispilocarpate] | 0.292 |  |  | 0.00833 | 0.05734 | 18.2 |  | 0.868 | 6 | 7.0165^2 |  |  | 
5 | CCC(=O)OC[C@H](Cc1cncn1C)[C@H](CC)C(=O)OCc1ccc(COC(=O)[C@@H](CC)[C@H](COC(=O)CC)Cc2cncn2C)cc1 [Example 10, O,O'-Dipropionyl (1,4-xylylene) bispilocarpate] | 1.96 | 91.8 | 16.7 | 0.00417 | 0.1184 | 30.5 | 50.6 | 0.362 | 5.8 |  |  |  | shelf-life-time t10% (time during which 10% of the drug has degraded) ([1]; at 4 °C, calculated from the Arrhenius plot): ~500 days
6 | CCCC(=O)OC[C@H](Cc1cncn1C)[C@H](CC)C(=O)OCc1ccc(COC(=O)[C@@H](CC)[C@H](COC(=O)CCC)Cc2cncn2C)cc1 [Example 11, O,O'-Dibutyryl (1,4-xylylene) bispilocarpate] | 5.71 | 250 | 7.38 | 0.00764 | 0.06149 | 21.5 | 46.4 | 0.603 | 6 | 5.5604^2 |  |  | 
7 | CC[C@H](C(=O)OCc1ccccc1)[C@H](COC(=O)CCCCC(=O)OC[C@H](Cc1cncn1C)[C@H](CC)C(=O)OCc1ccccc1)Cc1cncn1C [Example 15, O,O'-Adipoyl (dibenzyl) bispilocarpate] |  |  |  |  |  |  |  | 0.651 | 6 |  | 0.0194 | 0.02487 | half-life ([1]; buffer, pH 4.2): 131 days; half-life ([1]; buffer, pH 6): 68.6 days; half-life ([1]; buffer, pH 7.4): 27.3 days; half-life ([1]; buffer, pH 9): 2.92 days; Partition coefficient log P ([4]; pH 7.4): 5.8242^2; Capacity factor (22°C) k' [4]: 4.4810
8 | CC[C@H](C(=O)OCc1ccc(COC(=O)[C@@H](CC)[C@H](COC(C)=O)Cc2cncn2C)cc1)[C@H](COC(C)=O)Cc1cncn1C [Example 9, O,O'-Diacetyl (1,4-xylylene) bispilocarpate] |  |  |  |  |  |  |  | 0.146 | 6.03 |  | 0.00625 | 0.0737 | half-life ([1]; buffer, pH 4.2): 165 days; half-life ([1]; buffer, pH 6): 48.4 days; half-life ([1]; buffer, pH 7.4): 11.4 days; half-life ([1]; buffer, pH 9): 1.42 days; Partition coefficient log P ([4]; pH 7.4): 3.0432^1; Capacity factor (22°C) k' [4]: 1.3987; Papp ([3]; rabbit): 9.3 ×10⁻⁶ cm/s

Second part, led by results:

Row | half-life [1, 6] [days] | half-life [1, 7] [days] | half-life [1, 8] [days] | half-life [2, 9] [days] | Degradation coefficient (k) in plasma (80%), 37°C [2, 10] [min⁻¹] | Papp [3, 11] [×10⁻⁶ cm/s] | half-life [1, 12] [days] | chromatographic logP [4] | pKa [5] | Partition coefficient log P [4, 13] | half-life ([2]; pH 7.4) [days] | Degradation coefficient (k) in plasma (80%), 37°C ([2]; pH 7.4) [min⁻¹] | SMILES | also measured
9 | 12.6 | 356 | 48.7 | 0.00625 | 0.07876 | 11.5 |  |  |  |  |  |  | CCCCC(=O)OC[C@H](Cc1cncn1C)[C@H](CC)C(=O)OCc1ccccc1 [valeryl, benzyl, reference compound] | 
10 | 3.92 | 90.8 | 31.2 | 0.00417 | 0.108 | 14.3 | 222 |  |  |  |  |  | CCC(=O)OC[C@H](Cc1cncn1C)[C@H](CC)C(=O)OCc1ccccc1 [propionyl, benzyl, reference compound] | 
11 | 1.58 | 65.9 | 2.29 |  |  |  | 38 | 0.865 | 6 | 7.0000^2 | 0.149 | 0.00322 | CC[C@H](C(=O)OCc1ccccc1)[C@H](COC(=O)c1ccc(C(=O)OC[C@H](Cc2cncn2C)[C@H](CC)C(=O)OCc2ccccc2)cc1)Cc1cncn1C [Example 19, O,O'-Terephtaloyl (dibenzyl) bispilocarpate] | 
12 | 1.79 | 174 | 31.5 |  |  |  | 91.6 | 0.576 | 6 | 5.4093^2 | 0.00972 | 0.05044 | CC[C@H](C(=O)OCc1ccccc1)[C@H](COC(=O)CCCC(=O)OC[C@H](Cc1cncn1C)[C@H](CC)C(=O)OCc1ccccc1)Cc1cncn1C [Example 16, O,O'-Glutaryl (dibenzyl) bispilocarpate] | 
13 | 3.29 | 320 | 22.8 | 0.0111 | 0.04353 | 11.7 | 144 |  |  |  |  |  | CC[C@H](C(=O)OCc1ccccc1)[C@H](COC(C)=O)Cc1cncn1C [acetyl, benzyl, reference compound] | 
14 |  |  |  |  |  |  |  | 0.539 | 6 |  | 0.131 | 0.00368 | CC[C@H](C(=O)OCc1ccccc1)[C@H](COC(=O)CCC(=O)OC[C@H](Cc1cncn1C)[C@H](CC)C(=O)OCc1ccccc1)Cc1cncn1C [Example 17, O,O'-Succinyl (dibenzyl) bispilocarpate] | half-life ([1]; buffer, pH 4.2): 198 days; half-life ([1]; buffer, pH 6): 106 days; half-life ([1]; buffer, pH 7.4): 10.5 days; half-life ([1]; buffer, pH 9): 1.17 days; Partition coefficient log P ([4]; pH 7.4): 5.2038^2; Capacity factor (22°C) k' [4]: 3.4557
15 | 4.62 | 444 | 85.1 | 0.0125 | 0.038 | 8.7 | 203 |  |  |  |  |  | CC[C@H](C(=O)OCc1ccccc1)[C@H](COC(=O)c1ccccc1)Cc1cncn1C [benzoyl, benzyl, reference compound] | 
